ChEMBL document CHEMBL5505981, “Design, synthesis and biological evaluation of novel 1,2,4a,5-tetrahydro-4H-benzo[b][1,4]oxazino[4,3-d][1,4]oxazine-based AAK1 inhibitors with anti-viral property against SARS-CoV-2” (Eur J Med Chem, 2024)

Experiments:
Dengue virus = assay: Antiviral activity against DENV infected in human Huh-7 cells; format: functional, organism-based
[1] = molecular target: T1, AP2-associated protein kinase 1 (Homo sapiens, UniProt Q2M2I8); format: cell-based
HEK293 [2] = format: toxicity, cell-based; conditions: human, hek293, 48 h, 6 µM
HEK293 [3] = format: toxicity, cell-based; conditions: human, hek293, 48 h, 30 µM
[4] = Cytotoxicity against human Huh-7 cells; format: toxicity, cell-based
Ebolavirus = assay: Antiviral activity against EBOV; format: functional, organism-based; conditions: Orthoebolavirus
[5] = Cytotoxicity against human Huh7.5 cells; format: toxicity, cell-based, Huh-7.5
HEK293 [6] = format: toxicity, cell-based; conditions: human, hek293, 48 h, 20 µM
[7] = molecular target: T1, AP2-associated protein kinase 1; assay: Inhibition of AAK1 (unknown origin)

T1 sequence (Q2M2I8 whole entry): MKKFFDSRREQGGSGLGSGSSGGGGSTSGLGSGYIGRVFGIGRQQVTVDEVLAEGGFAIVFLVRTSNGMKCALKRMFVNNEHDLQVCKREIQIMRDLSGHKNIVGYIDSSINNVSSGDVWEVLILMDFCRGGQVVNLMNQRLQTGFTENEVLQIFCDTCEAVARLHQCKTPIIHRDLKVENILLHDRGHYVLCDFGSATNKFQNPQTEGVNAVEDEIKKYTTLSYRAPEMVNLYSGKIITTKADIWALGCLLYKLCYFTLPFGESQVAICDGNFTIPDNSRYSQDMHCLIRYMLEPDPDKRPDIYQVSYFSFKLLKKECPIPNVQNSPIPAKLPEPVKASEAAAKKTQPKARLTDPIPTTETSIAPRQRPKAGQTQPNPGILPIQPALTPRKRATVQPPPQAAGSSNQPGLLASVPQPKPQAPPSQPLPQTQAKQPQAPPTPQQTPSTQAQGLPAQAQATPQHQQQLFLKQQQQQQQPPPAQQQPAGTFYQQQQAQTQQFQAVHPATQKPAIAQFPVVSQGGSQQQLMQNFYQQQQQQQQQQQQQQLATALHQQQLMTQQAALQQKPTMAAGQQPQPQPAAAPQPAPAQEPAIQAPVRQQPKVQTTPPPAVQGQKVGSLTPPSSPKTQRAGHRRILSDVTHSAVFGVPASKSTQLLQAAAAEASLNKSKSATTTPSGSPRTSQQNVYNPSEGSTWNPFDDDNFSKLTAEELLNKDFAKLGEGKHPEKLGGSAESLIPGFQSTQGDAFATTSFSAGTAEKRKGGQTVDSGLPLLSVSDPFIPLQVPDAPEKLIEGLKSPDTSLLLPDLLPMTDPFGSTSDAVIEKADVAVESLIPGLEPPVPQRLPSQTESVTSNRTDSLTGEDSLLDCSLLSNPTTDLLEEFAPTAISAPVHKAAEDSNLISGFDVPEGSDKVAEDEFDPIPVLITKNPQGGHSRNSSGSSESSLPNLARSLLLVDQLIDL

With COc1ccc(-c2cnc3[nH]cc(C#Cc4cccnc4)c3c2)cc1OC the EC50 (Dengue virus) was 720 nM, the IC50 [1] was 7.57 nM and the Activity (HEK293 [2]) was “Toxic”.
In the case of C(#Cc1c[nH]c2ncc(-c3ccc4c(c3)OCC3COCCN43)cc12)c1ccccc1 (stereo not given), the IC50 [1] is reported as > 500 nM.
With NCCCC#Cc1c[nH]c2ncc(-c3ccc4c(c3)OCC3COCCN43)cc12 (stereo not given) the IC50 [1] was > 500 nM.
With C(#Cc1c[nH]c2ncc(-c3ccc4c(c3)OCC3COCCN43)cc12)c1cccnc1 (stereo not given) the Activity (HEK293 [2]) was “Toxic”.
In the case of CCN(CC)S(=O)(=O)Nc1cccc(-c2ccc3c(NC(=O)C4CC4)n[nH]c3c2)c1, the Activity (HEK293 [3]) is reported as “Non-Toxic”.
With N#Cc1ccc(-c2cnc3[nH]cc(NC(=O)c4cccnc4)c3c2)cc1 the CC50 [4] was > 50000 nM, the EC50 (Dengue virus) was 8000 nM and the EC50 (Ebolavirus) was > 10000 nM.
With CCN(CC)CCNC(=O)c1c(C)[nH]c(/C=C2\C(=O)Nc3ccc(F)cc32)c1C [SUNITINIB] the CC50 [4] was 11500 nM, the CC50 [5] was > 10000 nM and the Activity (HEK293 [6]) was “Non-Toxic”.
With CC(C)C[C@](C)(N)COc1ccc(-c2ccnc(C(F)F)c2)nc1C(F)F [PILAVAPADIN] the IC50 [7] was 1.2 nM and the Activity (HEK293 [3]) was “Non-Toxic”.
